Results from US7569517B2, “4-biphenyl-substituted pyrazolidin-3 5-diones pesticide agent and/or microbicide and/or herbicide” (Bayer CropScience AG, priority 2003, dated 2009).

Experiments:
Type in all cases: in vivo
[1] = tested on: green peach aphid (Myzus persicae); test: Myzus test (spray treatment) (Example B); details: sprayed Chinese cabbage discs
Protocol: Myzus Test (Spray Treatment)
(§1) • Solvents: 78 parts by weight of acetone • 1.5 parts by weight of dimethylformamide • Emulsifier: 0.5 part by weight of alkylaryl polyglycol ether
To produce a suitable preparation of active compound, 1 part by weight of active compound is mixed with the stated amounts of solvent and emulsifier, and the concentrate is diluted with emulsifier-containing water to the desired concentration.
Discs of Chinese cabbage (Brassica pekinensis) which are infested by all stages of the green peach aphid (Myzus persicae) are sprayed with a preparation of active compound of the desired concentration.
After the desired period of time, the activity in % is determined. 100% means that all aphids have been killed; 0% means that none of the aphids have been killed.

[2] = tested on: larvae of the mustard beetle (Phaedon cochleariae); test: Phaedon test (spray treatment) (Example C); details: sprayed Chinese cabbage discs
Protocol: Phaedon Test (Spray Treatment)
as §1
(§2) To produce a suitable preparation of active compound, 1 part by weight of active compound is mixed with the stated amounts of solvents and emulsifier, and the concentrate is diluted with emulsifier-containing water to the desired concentration.
After the desired period of time, the activity in % is determined. 100% means that all beetle larvae have been killed; 0% means that none of the beetle larvae have been killed.

[3] = tested on: caterpillars of the army worm (Spodoptera frugiperda); test: Spodoptera frugiperda test (spray treatment) (Example D); details: sprayed maize leaf discs
Protocol: Spodoptera Frugiperda Test (Spray Treatment)
as §1, §2
Discs of maize leaves (Zea mays) are sprayed with a preparation of active compound of the desired concentration and, after they have dried, populated with caterpillars of the army worm (Spodoptera frugiperda).
After the desired period of time, the activity in % is determined. 100% means that all caterpillars have been killed; 0% means that none of the caterpillars have been killed.

[4] = tested on: greenhouse red spider mite (Tetranychus urticae); test: Tetranychus test (OP-resistance/spray treatment) (Example E); details: sprayed bean leaf discs
Protocol: Tetranychus Test (OP-resistance/Spray Treatment)
as §1
To prepare a suitable preparation of active compound, 1 part by weight of active compound is mixed with the stated amounts of solvents and emulsifier, and the concentrate is diluted with emulsifier-containing water to the desired concentration.
Discs of bean leaves (Phaseolus vulgaris) which are infested by all stages of the greenhouse red spider mite (Tetranychus urticae) are sprayed with a preparation of active compound of the desired concentration.
After the desired period of time, the activity in % is determined. 100% means that all spider mites have been killed; 0% means that none of the spider mites have been killed.

## Cc1ccc(-c2ccc(Oc3ccccc3)cc2)cc1C1(Cl)C(=O)N2CCOCCN2C1=O [Ex. I-2-29]
[1]; 500 g/ha
  Kill rate in % after 5d: 100%

## Cc1ccc(-c2ccc(F)cc2)cc1C1(Cl)C(=O)N2CCCCN2C1=O [Ex. I-1-1]
[1]; 100 g/ha
  Kill rate in % after 5d: 100%
[2]; 100 g/ha
  Kill rate in % after 7d: 100%

## Cc1ccc(-c2ccc(F)cc2)cc1C1(Cl)C(=O)N2CCOCCN2C1=O [Ex. I-2-7]
[3]; 100 g/ha
  Kill rate in % after 7d: 100%
[4]; 100 g/ha
  Kill rate in % after 5d: 90%

## Cc1ccc(-c2ccc(Cl)cc2Cl)cc1C1(Cl)C(=O)N2CCOCCN2C1=O [Ex. I-2-12]
[2]; 500 g/ha
  Kill rate in % after 7d: 100%

## Cc1ccc(-c2ccccc2F)cc1C1(Cl)C(=O)N2CCOCCN2C1=O [Ex. I-2-5]
[4]; 500 g/ha
  Kill rate in % after 5d: 90%

## COc1ccc(Cl)cc1-c1ccc(C)c(C2(Cl)C(=O)N3CCCCN3C2=O)c1 [Ex. I-1-34]
[1]; 500 g/ha
  Kill rate in % after 5d: 100%

## Cc1ccc(-c2ccc(F)cc2F)cc1C1(Cl)C(=O)N2CCCCN2C1=O [Ex. I-1-17]
[1]; 500 g/ha
  Kill rate in % after 5d: 90%
[2]; 500 g/ha
  Kill rate in % after 7d: 100%

## Cc1ccc(-c2ccc(Cl)cc2)cc1C1(Cl)C(=O)N2CCOCCN2C1=O [Ex. I-2-4]
[3]; 500 g/ha
  Kill rate in % after 7d: 100%

## Cc1ccc(-c2ccccc2)cc1C1(Cl)C(=O)N2CCCCN2C1=O [Ex. I-1-3]
[4]; 500 g/ha
  Kill rate in % after 5d: 100%

## Cc1ccc(-c2ccc(F)cc2F)cc1C1(Cl)C(=O)N2CCOCCN2C1=O [Ex. I-2-16]
[1]; 500 g/ha
  Kill rate in % after 5d: 100%
[3]; 500 g/ha
  Kill rate in % after 7d: 100%

## Cc1ccc(-c2cc(F)ccc2F)cc1C1(Cl)C(=O)N2CCCCN2C1=O [Ex. I-1-18]
[2]; 500 g/ha
  Kill rate in % after 7d: 100%

## COc1ccc(-c2ccc(C)c(C3(Cl)C(=O)N4CCOCCN4C3=O)c2)cc1Cl [Ex. I-2-35]
[1]; 500 g/ha
  Kill rate in % after 5d: 100%

## Cc1ccc(-c2ccccc2)cc1C1(Cl)C(=O)N2CCOCCN2C1=O [Ex. I-2-1]
[2]; 500 g/ha
  Kill rate in % after 7d: 100%

## Cc1ccc(-c2ccccc2Cl)cc1C1(Cl)C(=O)N2CCOCCN2C1=O [Ex. I-2-2]
[3]; 500 g/ha
  Kill rate in % after 7d: 100%

## Cc1ccc(-c2ccc(Oc3ccc(Cl)cc3)cc2)cc1C1(Cl)C(=O)N2CCOCCN2C1=O [Ex. I-2-34]
[2]; 500 g/ha
  Kill rate in % after 7d: 100%

## Cc1ccc(-c2ccc(C)c(C3(Cl)C(=O)N4CCOCCN4C3=O)c2)cc1 [Ex. I-2-10]
[2]; 500 g/ha
  Kill rate in % after 7d: 100%

## Cc1ccc(-c2ccccc2F)cc1C1(Cl)C(=O)N2CCCCN2C1=O [Ex. I-1-7]
[1]; 500 g/ha
  Kill rate in % after 5d: 90%
[2]; 500 g/ha
  Kill rate in % after 7d: 100%

## Cc1ccc(-c2ccc(Cl)cc2)cc1C1(Cl)C(=O)N2CCCCN2C1=O [Ex. I-1-6]
[2]; 500 g/ha
  Kill rate in % after 7d: 100%
[3]; 500 g/ha
  Kill rate in % after 7d: 100%

## Cc1ccc(-c2ccc(Cl)cc2Cl)cc1C1(Cl)C(=O)N2CCCCN2C1=O [Ex. I-1-13]
[1]; 500 g/ha
  Kill rate in % after 5d: 90%
[4]; 500 g/ha
  Kill rate in % after 5d: 100%

## Cc1ccc(-c2ccc(C(F)(F)F)cc2)cc1C1(Cl)C(=O)N2CCCCN2C1=O [Ex. I-1-22]
[3]; 100 g/ha
  Kill rate in % after 7d: 100%

## Cc1ccc(-c2cccc(Cl)c2Cl)cc1C1(Cl)C(=O)N2CCCCN2C1=O [Ex. I-1-12]
[4]; 500 g/ha
  Kill rate in % after 5d: 90%

## Cc1ccc(-c2cccc(F)c2)cc1C1(Cl)C(=O)N2CCOCCN2C1=O [Ex. I-2-6]
[1]; 500 g/ha
  Kill rate in % after 5d: 90%
[2]; 500 g/ha
  Kill rate in % after 7d: 100%

## Cc1cccc(-c2ccc(C)c(C3(Cl)C(=O)N4CCCCN4C3=O)c2)c1 [Ex. I-1-10]
[2]; 500 g/ha
  Kill rate in % after 7d: 100%
[4]; 500 g/ha
  Kill rate in % after 5d: 100%

## Cc1ccc(-c2ccc(Cl)c(Cl)c2)cc1C1(Cl)C(=O)N2CCCCN2C1=O [Ex. I-1-15]
[3]; 500 g/ha
  Kill rate in % after 7d: 100%

## Cc1ccc(-c2cccc(C(F)(F)F)c2)cc1C1(Cl)C(=O)N2CCOCCN2C1=O [Ex. I-2-20]
[2]; 500 g/ha
  Kill rate in % after 7d: 100%

## Cc1ccc(-c2cc(Cl)cc(Cl)c2)cc1C1(Cl)C(=O)N2CCOCCN2C1=O [Ex. I-2-15]
[2]; 500 g/ha
  Kill rate in % after 7d: 100%

## Cc1cccc(-c2ccc(C)c(C3(Cl)C(=O)N4CCOCCN4C3=O)c2)c1 [Ex. I-2-9]
[4]; 500 g/ha
  Kill rate in % after 5d: 90%

## Cc1ccc(-c2ccc(F)c(Cl)c2)cc1C1(Cl)C(=O)N2CCCCN2C1=O [Ex. I-1-19]
[3]; 500 g/ha
  Kill rate in % after 7d: 100%

## Cc1ccc(-c2cccc(F)c2)cc1C1(Cl)C(=O)N2CCCCN2C1=O [Ex. I-1-8]
[3]; 500 g/ha
  Kill rate in % after 7d: 100%
[4]; 500 g/ha
  Kill rate in % after 5d: 100%

## Cc1ccc(-c2ccc(OC(F)(F)F)cc2)cc1C1(Cl)C(=O)N2CCOCCN2C1=O [Ex. I-2-28]
[4]; 500 g/ha
  Kill rate in % after 5d: 90%

## Cc1ccc(-c2ccc(OC(F)(F)F)cc2)cc1C1(Cl)C(=O)N2CCCCN2C1=O [Ex. I-1-29]
[2]; 500 g/ha
  Kill rate in % after 7d: 100%
[4]; 500 g/ha
  Kill rate in % after 5d: 100%

## Cc1ccc(-c2ccc(F)c(Cl)c2)cc1C1(Cl)C(=O)N2CCOCCN2C1=O [Ex. I-2-18]
[1]; 500 g/ha
  Kill rate in % after 5d: 90%
[3]; 500 g/ha
  Kill rate in % after 7d: 100%

## COc1ccc(Cl)c(-c2ccc(C)c(C3(Cl)C(=O)N4CCOCCN4C3=O)c2)c1 [Ex. I-2-23]
[1]; 500 g/ha
  Kill rate in % after 5d: 100%

## Cc1ccc(-c2ccc(C)c(C3(Cl)C(=O)N4CCCCN4C3=O)c2)cc1 [Ex. I-1-11]
[2]; 500 g/ha
  Kill rate in % after 7d: 100%

## COc1ccccc1-c1ccc(C)c(C2(Cl)C(=O)N3CCOCCN3C2=O)c1 [Ex. I-2-22]
[4]; 100 g/ha
  Kill rate in % after 5d: 90%

## Cc1ccc(-c2cc(F)ccc2F)cc1C1(Cl)C(=O)N2CCOCCN2C1=O [Ex. I-2-17]
[2]; 500 g/ha
  Kill rate in % after 7d: 100%

## Cc1ccc(-c2ccc(Cl)c(Cl)c2)cc1C1(Cl)C(=O)N2CCOCCN2C1=O [Ex. I-2-14]
[2]; 500 g/ha
  Kill rate in % after 7d: 100%

## Cc1ccc(-c2ccccc2C(F)(F)F)cc1C1(Cl)C(=O)N2CCOCCN2C1=O [Ex. I-2-19]
[4]; 500 g/ha
  Kill rate in % after 5d: 90%

## Cc1ccc(-c2cc(Cl)ccc2Cl)cc1C1(Cl)C(=O)N2CCOCCN2C1=O [Ex. I-2-13]
[3]; 500 g/ha
  Kill rate in % after 7d: 100%

## Cc1ccc(-c2cccc(Cl)c2)cc1C1(Cl)C(=O)N2CCOCCN2C1=O [Ex. I-2-3]
[3]; 500 g/ha
  Kill rate in % after 7d: 100%

## Cc1ccc(-c2cccc([N+](=O)[O-])c2)cc1C1(Cl)C(=O)N2CCOCCN2C1=O [Ex. I-2-27]
[2]; 500 g/ha
  Kill rate in % after 7d: 100%
[4]; 100 g/ha
  Kill rate in % after 5d: 100%

## Cc1ccc(-c2cc(Cl)ccc2Cl)cc1C1(Cl)C(=O)N2CCCCN2C1=O [Ex. I-1-14]
[2]; 500 g/ha
  Kill rate in % after 7d: 100%
[4]; 500 g/ha
  Kill rate in % after 5d: 100%

## Cc1ccc(-c2ccc(C(F)(F)F)cc2)cc1C1(Cl)C(=O)N2CCOCCN2C1=O [Ex. I-2-21]
[3]; 500 g/ha
  Kill rate in % after 7d: 100%
